The text below walks through data of patent publication US11111238B2, “Coumarin derivatives, processes for their preparation and uses thereof for the treatment of cancer” (Lead Discovery Center GmbH, priority 2017, dated 2021).

In series [1] the target is mitochondrial RNA-polymerase (POLRMT) (Mus musculus, UniProt Q8BKF1). Nature of the series: Homogeneous TR-FRET assay for mitochondrial transcription activity. Format: biochemical. The conditions noted are these: homogeneous TR-FRET assay according to Example 4; activity class. The procedure, abridged: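 TR-FRET read-out (340 nm excitation, 665 nm emission) of a 407 bp transcript captured by Eu-streptavidin/biotin donor and ATTO647N acceptor DNA probes after EDTA stop. Transcription ran 2 h at RT with 500 μM […], mouse POLRMT/TFAM/TFB2M and LSP-plasmid template, after 10 min compound preincubation (10 μM or dilution series).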
Sequence of mitochondrial RNA-polymerase (POLRMT) (Q8BKF1 42-1207): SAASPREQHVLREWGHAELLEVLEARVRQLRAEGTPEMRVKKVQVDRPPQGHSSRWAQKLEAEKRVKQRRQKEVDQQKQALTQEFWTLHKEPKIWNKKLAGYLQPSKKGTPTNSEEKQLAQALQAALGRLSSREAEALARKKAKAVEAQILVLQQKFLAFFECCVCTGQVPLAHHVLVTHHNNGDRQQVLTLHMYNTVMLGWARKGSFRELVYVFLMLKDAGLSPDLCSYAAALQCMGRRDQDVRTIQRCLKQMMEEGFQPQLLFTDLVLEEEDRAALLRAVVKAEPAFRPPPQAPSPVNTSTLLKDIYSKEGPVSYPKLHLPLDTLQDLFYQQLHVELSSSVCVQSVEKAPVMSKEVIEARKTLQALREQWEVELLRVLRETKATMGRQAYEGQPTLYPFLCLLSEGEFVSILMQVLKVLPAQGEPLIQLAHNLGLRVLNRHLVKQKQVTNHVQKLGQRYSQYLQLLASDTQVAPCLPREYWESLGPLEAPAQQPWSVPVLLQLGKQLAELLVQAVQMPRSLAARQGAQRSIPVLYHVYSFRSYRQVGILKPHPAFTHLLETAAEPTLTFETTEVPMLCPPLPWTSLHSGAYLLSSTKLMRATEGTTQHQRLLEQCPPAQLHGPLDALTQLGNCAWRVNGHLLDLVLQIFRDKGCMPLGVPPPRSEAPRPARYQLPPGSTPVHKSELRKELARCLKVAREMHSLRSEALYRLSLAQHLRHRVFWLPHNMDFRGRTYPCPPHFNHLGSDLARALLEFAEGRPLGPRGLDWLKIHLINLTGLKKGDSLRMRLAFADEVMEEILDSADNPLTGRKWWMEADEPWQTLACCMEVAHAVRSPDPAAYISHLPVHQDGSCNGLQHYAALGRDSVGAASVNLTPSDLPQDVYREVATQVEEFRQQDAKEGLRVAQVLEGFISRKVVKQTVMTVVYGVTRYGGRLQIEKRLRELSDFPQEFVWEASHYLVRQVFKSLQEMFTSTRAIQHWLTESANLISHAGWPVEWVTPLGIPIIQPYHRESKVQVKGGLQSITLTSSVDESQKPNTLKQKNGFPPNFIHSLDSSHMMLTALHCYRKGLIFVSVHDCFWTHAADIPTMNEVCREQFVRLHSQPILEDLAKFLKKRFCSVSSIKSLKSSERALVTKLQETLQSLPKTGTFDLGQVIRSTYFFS
(In general: Time-resolved FRET reads energy transfer from a long-lived donor to a nearby acceptor.)

In series [2] the test system is mitochondrial transcription (7S RNA) in HeLa cells. Description: Quantitative real time-PCR assay of inhibition of mitochondrial transcription (cellular qPCR assay IMT). The format is cell-based. The conditions noted are these: Homo sapiens, 4 h compound incubation, qRT-PCR according to Example 5, activity class. The procedure, abridged: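 HeLa cells were exposed 4 h to compound dilution series or DMSO. Mitochondrial 7S RNA, with POLRMT for nuclear transcription, was measured by TaqMan qRT-PCR, normalised to TBP. Biological triplicates were analysed by ΔΔCt and expressed as Rq % (2^-ΔΔCt).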
A general note: Quantitative PCR measures a nucleic acid by following its amplification.

The subject of another series is CA-46 (lymphoma). Nature of the series: CellTiter GLO viability assay, CA-46. The conditions noted are these: Homo sapiens, CA46, 144 h, read-out: IC50 (μM) incubation time 144 h. Format: cell-based. On the procedure:
(§1) The CellTiter-Glo Luminescent Cell Viability Assay (Promega) is a homogeneous method of determining the number of viable cells in culture. It is based on quantification of ATP, indicating the presence of metabolically active cells.
(§2) […] After incubation for 3 h in humidified chambers at 37° C./5% CO2 compounds/DMSO were added at different concentrations. […] Cells treated with the compound vehicle DMSO were used as positive controls and cells treated with 10 μM Staurosporine served as negative controls. […] Thereon, mixture and assay plates were equilibrated at room temperature for 20 min. Equal volumes of the reagent-medium-mixture was added to the volume of culture medium present in each well.
(§3) The plates were mixed at ˜200 rpm for 2 minutes on an orbital shaker. The microplates were then incubated at room temperature for 10 minutes for stabilization of the luminescent signal. Following incubation the luminescence is recorded on a Victor microplate reader (Perkin Elmer) using 200 ms integration time. The data were then analyzed with Excel using the XLFIT Plugin (dose response Fit 205) for IC50-determination. As quality control the Z′-factor was calculated from 16 positive and negative control values. Only assay results showing a Z′-factor≥0.5 were used for further analysis.

A further series concerns HEC-59 (endometrial). Description: CellTiter GLO viability assay, HEC-59. The format is cell-based. The note with it: 144 h, read-out: IC50 (μM) incubation time 144 h. On the procedure: as §1
(§4) Cells were seeded on day 1 at cell numbers that assure assay linearity and optimal signal intensity. After incubation for 3 h in humidified chambers at 37° C./5% CO2 compounds/DMSO were added at different concentrations. […] Cells treated with the compound vehicle DMSO were used as positive controls and cells treated with 10 μM Staurosporine served as negative controls. […] Thereon, mixture and assay plates were equilibrated at room temperature for 20 min. Equal volumes of the reagent-medium-mixture was added to the volume of culture medium present in each well.
as §3
(In general: Cellular ATP, detected with luciferase, serves as a proxy for viable cell number.)

A further series has as its system HRT-18 (colon). Nature of the series: CellTiter GLO viability assay, HRT-18. The note with it: Homo sapiens, 144 h, read-out: IC50 (μM) incubation time 144 h. Format: cell-based. On the procedure:
as §1, §4, §3

For another series, the system named is NCI-H1299 (lung). Nature of the series: CellTiter GLO viability assay, NCI-H1299. Format: cell-based. The note with it: Homo sapiens, 144 h, read-out: IC50 (μM) incubation time 144 h. On the procedure:
as §1, §4, §3

The next series relates to NCI-H23 (lung). Description: CellTiter GLO viability assay, NCI-H23. Format: cell-based. On the procedure: as §1, §4, §3
A further series has as its system NCI-H596 (lung). Nature of the series: CellTiter GLO viability assay, NCI-H596. Format: cell-based. The conditions noted are these: Homo sapiens, 144 h, read-out: IC50 (μM) incubation time 144 h. On the procedure:
as §1, §4, §3

Another series has as its system SW403 (colon). Description: CellTiter GLO viability assay, SW403. The format is cell-based. The note with it: Homo sapiens, SW-403, 144 h, read-out: IC50 (μM) incubation time 144 h. On the procedure:
as §1, §2, §3

A further series concerns SW48 (colon). Description: CellTiter GLO viability assay, SW48. The note with it: Homo sapiens, 144 h, read-out: IC50 (μM) incubation time 144 h. The format is cell-based. On the procedure: as §1, §4, §3
For the next series, the system named is SW948 (colon). Nature of the series: CellTiter GLO viability assay, SW948. The format is cell-based. The note with it: Homo sapiens, 144 h, read-out: IC50 (μM) incubation time 144 h. On the procedure:
as §1, §4, §3

The subject of series [3] is human DLD-1 colon carcinoma xenograft. Description: Therapeutic effect on human DLD-1 colon carcinoma xenograft in nude mice. The note with it: 30 mg/kg p.o. QD × 28 days, positive control.
Experimental: DLD-1 colon carcinoma cells (5×10^6 cells in 100 μL of PBS/Matrigel), isolated during exponential growth phase from in vitro cell culture, were transplanted s.c. into each female BALB/c nude mouse at day 0. Mice were kept under strictly controlled and standardized barrier conditions in IVC.
Sorafenib) (Nexavar®, which is an approved multi-kinase inhibitor/cytostatic from Bayer A G, was used as a positive control. Body weight and tumor volume (TV) were monitored two to three times per week.
Mice of groups 3, 4 and 5 were treated again at the end of the study period and blood samples were taken to generate plasma 1 h prior and 1 h post treatment. In addition, tumor and tissue samples were isolated, divided into two parts and snap frozen in liquid nitrogen. Mice of groups 1-5 were sacrificed at day 39. Gross autopsy was performed from all mice.

With `CC(Oc1ccc2c(-c3ccc(F)cc3Cl)cc(=O)oc2c1)C(=O)N1CCC[C@H](C(=O)O)C1` (stereo partly drawn) [Compound 47, (3S)-1-(2-((4-(2-chloro-4-fluorophenyl)-2-oxo-2H-chromen-7-yl)oxy)propanoyl)piperidine-3-carboxylic acid], the IC50 (in general, the point on the concentration scale where inhibition reaches its midpoint) in series [1] was under 0.02 µM; in [2], under 0.01 µM; with CA-46 (lymphoma), 0.1 to 1 µM; in the series on HEC-59 (endometrial), over 10 µM; in the series with HRT-18 (colon), at most 0.1 µM; in the series with NCI-H1299 (lung), 0.1 to 1 µM. Moreover, the IC50 was over 10 µM with NCI-H23 (lung) (Homo sapiens, NCI-H23 (lung), 144 h, read-out: IC50 (μM) incubation time 144 h); 1 to 10 µM with NCI-H596 (lung); 0.1 to 1 µM with SW403 (colon); 0.1 to 1 µM in the series on SW48 (colon); 0.1 to 1 µM in the series on SW948 (colon). Besides, in the series on NCI-H23 (lung) (NCl-H23), the “sensitivity of the cell line (in words)” value was “resistant”.

Take `CNC(=O)c1cc(Oc2ccc(NC(=O)Nc3ccc(Cl)c(C(F)(F)F)c3)cc2)ccn1` [Sorafenib, reference compound]: the body weight loss entry in series [3] is on record as “severe body weight loss”.

As to `CC(C)OC(=O)[C@H]1CCCN(C(=O)[C@@H](C)Oc2ccc3c(-c4ccc(F)cc4Cl)cc(=O)oc3c2)C1` [Compound 117, isopropyl (3S)-1-[(2R)-2-[4-(2-chloro-4-fluoro-phenyl)-2-oxo-chromen-7-yl]oxypropanoyl] piperidine-3-carboxylate], the figures for the IC50 in series [1] and in series [2] were 0.02 to 0.1 µM and 0.05 to 0.5 µM, respectively.

As for `CC(Oc1ccc2c(-c3ccccc3Cl)cc(=O)oc2c1)C(=O)N1CCCC(C(=O)O)C1` (centres unmarked) [Compound 9, 1-[2-[4-(2-chlorophenyl)-2-oxo-chromen-7-yl]oxypropanoyl]piperidine-3-carboxylic acid], the values for the IC50 in [1] and in series [2] were under 0.02 µM and under 0.01 µM, respectively.

Take `CCC(Oc1ccc2c(-c3ccccc3Cl)cc(=O)oc2c1)C(=O)N1CCC[C@H](C(=O)O)C1` (stereo partly drawn) [Compound 110, (3S)-1-[2-[4-(2-chlorophenyl)-2-oxo-chromen-7-yl]oxybutanoyl]piperidine-3-carboxylic acid]: the half-inhibitory concentration (IC50) in series [1] is under 0.02 µM; in series [2] it was under 0.01 µM.

For the compound `CC(Oc1ccc2c(-c3ccccc3Cl)cc(=O)oc2c1)C(=O)NC1CC1` (centres unmarked) [Compound 26, 2-[4-(2-chlorophenyl)-2-oxo-chromen-7-yl]oxy-N-cyclopropyl-propanamide], the IC50 is under 0.02 µM in [1] and under 0.01 µM in series [2].

In the case of `Cc1ccccc1-c1cc(=O)oc2cc(O[C@H](C)C(=O)NC(C)C)ccc12` [Compound 36, (2R)-N-isopropyl-2-[4-(o-tolyl)-2-oxo-chromen-7-yl]oxy-propanamide], the IC50 in series [1] is under 0.02 µM; in series [2] it was under 0.01 µM.

For the compound `CCC(=O)N[C@H]1CCCN(C(=O)[C@@H](C)Oc2ccc3c(-c4ccc(F)cc4Cl)cc(=O)oc3c2)C1` [Compound 169, N-[(3S)-1-[(2R)-2-[4-(2-chloro-4-fluoro-phenyl)-2-oxo-chromen-7-yl]oxypropanoyl]-3-piperidyl]propanamide], the IC50 is under 0.02 µM in series [1] and under 0.01 µM in [2].

Regarding `C[C@@H](Oc1ccc2c(-c3ccc(F)cc3Cl)cc(=O)oc2c1)C(=O)Nc1ccc(C(=O)O)cn1` [Compound 155, 6-[[(2R)-2-[4-(2-chloro-4-fluoro-phenyl)-2-oxo-chromen-7-yl]oxypropanoyl]amino]pyridine-3-carboxylic acid], the figures for the IC50 in series [1] and in [2] were under 0.02 µM and under 0.01 µM, respectively.

Take `Cc1ccccc1-c1cc(=O)oc2cc(OC(C)C(=O)N3CCCC(C(=O)O)C3)ccc12` (centres unmarked) [Compound 8, 1-[2-[4-(o-tolyl)-2-oxo-chromen-7-yl]oxypropanoyl]piperidine-3-carboxylic acid]: the IC50 in series [1] is under 0.02 µM; in series [2], under 0.01 µM.

For the compound `C[C@@H](Oc1ccc2c(-c3ccc(F)cc3Cl)cc(=O)oc2c1)C(=O)N1CCC[C@@H](CC(=O)O)C1` [Compound 107, 2-[(3S)-1-[(2R)-2-[4-(2-chloro-4-fluoro-phenyl)-2-oxo-chromen-7-yl]oxypropanoyl]-3-piperidyl]acetic acid], the concentration for half-maximal inhibition (IC50) in series [1] was under 0.02 µM; in series [2], under 0.01 µM.

Regarding `CC(C)OC(=O)OCOC(=O)C[C@H]1CCCN(C(=O)[C@@H](C)Oc2ccc3c(-c4ccc(F)cc4Cl)cc(=O)oc3c2)C1` [Compound 127, isopropoxycarbonyloxymethyl 2-[(3R)-1-[(2R)-2-[4-(2-chloro-4-fluoro-phenyl)-2-oxo-chromen-7-yl]oxypropanoyl]-3-piperidyl]acetate], the figures for the IC50 in series [1] and in series [2] were 0.02 to 0.1 µM and under 0.01 µM, respectively.

As to `CC(Oc1ccc2c(-c3ccccc3Br)cc(=O)oc2c1)C(=O)N(C)C` (centres unmarked) [Compound 89, 2-[4-(2-bromophenyl)-2-oxo-chromen-7-yl]oxy-N,N-dimethyl-propanamide], the IC50 in [1] is 0.02 to 0.1 µM; in series [2], under 0.01 µM.

With `CC(Oc1ccc2c(-c3ccccc3Cl)cc(=O)oc2c1)C(=O)N1CCCC(S(N)(=O)=O)C1` (centres unmarked) [Compound 24, 1-[2-[4-(2-chlorophenyl)-2-oxo-chromen-7-yl]oxypropanoyl]piperidine-3-sulfonamide], the IC50 was under 0.02 µM in series [1] and under 0.01 µM in series [2].

For `C[C@@H](Oc1ccc2c(-c3ccc(F)cc3Cl)cc(=O)oc2c1)C(=O)N1CCC[C@H](CC(=O)O)C1` [Compound 106, 2-[(3R)-1-[(2R)-2-[4-(2-chloro-4-fluoro-phenyl)-2-oxo-chromen-7-yl]oxypropanoyl]-3-piperidyl]acetic acid], the results for the IC50 in [1] and in [2] were under 0.02 µM and under 0.01 µM, respectively.

Take `CC(Oc1ccc2c(-c3ccccc3Cl)cc(=O)oc2c1)C(=O)N1CCC[C@H](C(=O)O)C1` (stereo partly drawn) [Compound 33, (3S)-1-[2-[4-(2-chlorophenyl)-2-oxo-chromen-7-yl]oxypropanoyl]piperidine-3-carboxylic acid]: the IC50 in [1] was under 0.02 µM; in series [2], under 0.01 µM.

As for `Cc1cscc1-c1cc(=O)oc2cc(O[C@H](C)C(=O)N3CCC[C@H](C(=O)O)C3)ccc12` [Compound 182, (3S)-1-[(2R)-2-[4-(4-methyl-3-thienyl)-2-oxo-chromen-7-yl]oxypropanoyl]piperidine-3-carboxylic acid], the IC50 was under 0.02 µM in series [1] and under 0.01 µM in series [2].

Regarding `C[C@@H](Oc1ccc2c(-c3ccc(F)cc3Cl)cc(=O)oc2c1)C(=O)N1CCC[C@H](CC(=O)OCCN2CCOCC2)C1` [Compound 125], the values for the IC50 in series [1] and in series [2] were under 0.02 µM and under 0.01 µM, respectively.

Turning to `CNS(=O)(=O)C1CCCN(C(=O)C(C)Oc2ccc3c(-c4ccccc4C)cc(=O)oc3c2)C1` (centres unmarked) [Compound 18, N-methyl-1-[2-[4-(o-tolyl)-2-oxo-chromen-7-yl]oxypropanoyl]piperidine-3-sulfonamide], the results for the IC50 in series [1] and in series [2] were under 0.02 µM and under 0.01 µM, respectively.

As for `Cc1ccccc1-c1cc(=O)oc2cc(OC(C)C(=O)N3CCCCC3)ccc12` (centres unmarked) [Compound 1, 7-[1-methyl-2-oxo-2-(1-piperidyl)ethoxy]-4-(o-tolyl)chromen-2-one], the IC50 is under 0.02 µM in series [1] and under 0.01 µM in series [2].

`C[C@@H](Oc1ccc2c(-c3ccc(F)cc3Cl)cc(=O)oc2c1)C(=O)N1CCC[C@H](CC(=O)OC(C)(C)C)C1` [Compound 124, tert-butyl 2-[(3R)-1-[(2R)-2-[4-(2-chloro-4-fluoro-phenyl)-2-oxo-chromen-7-yl]oxypropanoyl]-3-piperidyl]acetate]: the values for the IC50 in series [1] and in series [2] were 0.02 to 0.1 µM and under 0.01 µM, respectively.

For the compound `CC(C)NC(=O)C(C)(C)Oc1ccc2c(-c3ccccc3Cl)cc(=O)oc2c1` [Compound 114, 2-[4-(2-chlorophenyl)-2-oxo-chromen-7-yl]oxy-N-isopropyl-2-methyl-propanamide], the results for the IC50 in series [1] and in series [2] were 0.1 to 1 µM and 0.01 to 0.05 µM, respectively.
